{
  "source": "patent US9113629B2",
  "about": "“4-amino-6-(4-substituted-phenyl)-picolinates and 6-amino-2-(4-substituted-phenyl)-pyrimidine-4-carboxylates and their use as herbicides” (DOW AGROSCIENCES LLC, priority 2013, dated 2015)",
  "key": {"[1]": {"tested_on": "Key Broadleaf Weed and Crop Species", "experiment": "Post-emergent Test II herbicidal activity (Table 5)", "format": "in vivo", "settings": "post-emergence, 336 h, 14 days after application; for pest or weed control at 70 g/ha: application rate 70 g ai/ha; for pest or weed control at 140 g/ha: application rate 140 g ai/ha", "procedure,_shortened": "(§1)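 Greenhouse post-emergent assay: seedlings (first/second true leaf) in Metro-Mix 360 were sprayed at 187 L/ha at a top rate plus twofold dilutions down to 1/16×; solvent-blank controls were included. Percent visual injury was read at 14 d.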"}, "[2]": {"tested_on": "Key Grass and Sedge Weeds as well as Grass Crops", "experiment": "Post-emergent Test II herbicidal activity (Table 6)", "format": "in vivo", "settings": "post-emergence, 336 h; for pest or weed control at 70 g/ha: 70 g ai/ha; for pest or weed control at 140 g/ha: 140 g ai/ha", "procedure,_shortened": "as §1"}, "[3]": {"settings": "ABUTH: velvetleaf (Abutilon theophrasti), read-out: Visual Growth Reduction (%) 14 Days After Application, ABUTH"}, "[4]": {"settings": "AMARE: redroot pigweed (Amaranthus retroflexus), read-out: Visual Growth Reduction (%) 14 Days After Application, AMARE"}, "[5]": {"settings": "BRSNN: oilseed-rape, canola (Brassica napus), read-out: Visual Growth Reduction (%) 14 Days After Application, BRSNN"}, "[6]": {"settings": "CHEAL: lambsquarters (Chenopodium album), read-out: Visual Growth Reduction (%) 14 Days After Application, CHEAL"}, "[7]": {"settings": "EPHHL: wild poinsettia (Euphorbia heterophylla), read-out: Visual Growth Reduction (%) 14 Days After Application, EPHHL"}, "[8]": {"settings": "HELAN: sunflower (Helianthus annuus), read-out: Visual Growth Reduction (%) 14 Days After Application, HELAN"}, "[9]": {"settings": "VIOTR: wild pansy (Viola tricolor), read-out: Visual Growth Reduction (%) 14 Days After Application, VIOTR"}, "[10]": {"settings": "CYPES: yellow nutsedge (Cyperus esculentus), read-out: Visual Growth Reduction (%) 14 Days After Application, CYPES"}, "[11]": {"settings": "DIGSA: crabgrass (Digitaria sanguinalis), read-out: Visual Growth Reduction (%) 14 Days After Application, DIGSA"}, "[12]": {"settings": "ECHCG: barnyardgrass (Echinochloa crus-galli), read-out: Visual Growth Reduction (%) 14 Days After Application, ECHCG"}, "[13]": {"settings": "ORYSA: rice (Oryza sativa), crop, read-out: Visual Growth Reduction (%) 14 Days After Application, ORYSA"}, "[14]": {"settings": "SETFA: giant foxtail (Setaria faberi), read-out: Visual Growth Reduction (%) 14 Days After Application, SETFA"}, "[15]": {"settings": "SORVU: grain sorghum (Sorghum vulgare), read-out: Visual Growth Reduction (%) 14 Days After Application, SORVU"}, "[16]": {"settings": "TRZSS (wheat, Triticum aestivum), crop, read-out: Visual Growth Reduction (%) 14 Days After Application, TRZSS"}, "[17]": {"settings": "ZEAMX: maize, corn (Zea mays), crop, read-out: Visual Growth Reduction (%) 14 Days After Application, ZEAMX"}},
  "note": "Read-outs that look alike come from different tables or passages of the source.",
  "data": [
    {"smiles": "COC(=O)c1nc(-c2ccc(C(F)(F)F)c(F)c2)c(F)c(N)c1Cl", "note": "[Compound 165]", "values": [
      {"measurement": "melting point", "value": "133 to 135", "unit": "°C"},
      {"measurement": "pest or weed control at 70 g/ha", "setting": "[1]; [3]", "value": "85 to 94", "unit": "%"},
      {"measurement": "pest or weed control at 140 g/ha", "setting": "[1]; [3]", "value": "95 to 100", "unit": "%"},
      {"measurement": "pest or weed control at 70 g/ha", "setting": "[1]; [4]", "value": "85 to 94", "unit": "%"},
      {"measurement": "pest or weed control at 140 g/ha", "setting": "[1]; [4]", "value": "85 to 94", "unit": "%"},
      {"measurement": "pest or weed control at 70 g/ha", "setting": "[1]; [5]", "value": "75 to 84", "unit": "%"},
      {"measurement": "pest or weed control at 140 g/ha", "setting": "[1]; [5]", "value": "85 to 94", "unit": "%"},
      {"measurement": "pest or weed control at 70 g/ha", "setting": "[1]; [6]", "value": "95 to 100", "unit": "%"},
      {"measurement": "pest or weed control at 140 g/ha", "setting": "[1]; [6]", "value": "95 to 100", "unit": "%"},
      {"measurement": "pest or weed control at 70 g/ha", "setting": "[1]; [7]", "value": "95 to 100", "unit": "%"},
      {"measurement": "pest or weed control at 140 g/ha", "setting": "[1]; [7]", "value": "95 to 100", "unit": "%"},
      {"measurement": "pest or weed control at 70 g/ha", "setting": "[1]; [8]", "value": "95 to 100", "unit": "%"},
      {"measurement": "pest or weed control at 140 g/ha", "setting": "[1]; [8]", "value": "95 to 100", "unit": "%"},
      {"measurement": "pest or weed control at 70 g/ha", "setting": "[1]; [9]", "value": "45 to 59", "unit": "%"},
      {"measurement": "pest or weed control at 140 g/ha", "setting": "[1]; [9]", "value": "95 to 100", "unit": "%"},
      {"measurement": "pest or weed control at 70 g/ha", "setting": "[2]; [10]", "value": "95 to 100", "unit": "%"},
      {"measurement": "pest or weed control at 140 g/ha", "setting": "[2]; [10]", "value": "95 to 100", "unit": "%"},
      {"measurement": "pest or weed control at 70 g/ha", "setting": "[2]; [11]", "value": "60 to 74", "unit": "%"},
      {"measurement": "pest or weed control at 140 g/ha", "setting": "[2]; [11]", "value": "60 to 74", "unit": "%"},
      {"measurement": "pest or weed control at 70 g/ha", "setting": "[2]; [12]", "value": "85 to 94", "unit": "%"},
      {"measurement": "pest or weed control at 140 g/ha", "setting": "[2]; [12]", "value": "95 to 100", "unit": "%"},
      {"measurement": "pest or weed control at 70 g/ha", "setting": "[2]; [13]", "value": "0 to 29", "unit": "%"},
      {"measurement": "pest or weed control at 140 g/ha", "setting": "[2]; [13]", "value": "0 to 29", "unit": "%"},
      {"measurement": "pest or weed control at 70 g/ha", "setting": "[2]; [14]", "value": "60 to 74", "unit": "%"},
      {"measurement": "pest or weed control at 140 g/ha", "setting": "[2]; [14]", "value": "85 to 94", "unit": "%"},
      {"measurement": "pest or weed control at 70 g/ha", "setting": "[2]; [15]", "value": "60 to 74", "unit": "%"},
      {"measurement": "pest or weed control at 140 g/ha", "setting": "[2]; [15]", "value": "60 to 74", "unit": "%"},
      {"measurement": "pest or weed control at 70 g/ha", "setting": "[2]; [16]", "value": "45 to 59", "unit": "%"},
      {"measurement": "pest or weed control at 140 g/ha", "setting": "[2]; [16]", "value": "45 to 59", "unit": "%"},
      {"measurement": "pest or weed control at 70 g/ha", "setting": "[2]; [17]", "value": "75 to 84", "unit": "%"},
      {"measurement": "pest or weed control at 140 g/ha", "setting": "[2]; [17]", "value": "95 to 100", "unit": "%"}
    ]},
    {"smiles": "Nc1c(F)c(-c2ccc(I)cc2F)nc(C(=O)O)c1Cl", "note": "[Compound 169]", "values": [
      {"measurement": "melting point", "value": "152 to 155", "unit": "°C"},
      {"measurement": "pest or weed control at 70 g/ha", "setting": "[1]; [3]", "value": "85 to 94", "unit": "%"},
      {"measurement": "pest or weed control at 140 g/ha", "setting": "[1]; [3]", "value": "85 to 94", "unit": "%"},
      {"measurement": "pest or weed control at 70 g/ha", "setting": "[1]; [4]", "value": "95 to 100", "unit": "%"},
      {"measurement": "pest or weed control at 140 g/ha", "setting": "[1]; [4]", "value": "95 to 100", "unit": "%"},
      {"measurement": "pest or weed control at 70 g/ha", "setting": "[1]; [5]", "value": "95 to 100", "unit": "%"},
      {"measurement": "pest or weed control at 140 g/ha", "setting": "[1]; [5]", "value": "95 to 100", "unit": "%"},
      {"measurement": "pest or weed control at 70 g/ha", "setting": "[1]; [6]", "value": "95 to 100", "unit": "%"},
      {"measurement": "pest or weed control at 140 g/ha", "setting": "[1]; [6]", "value": "95 to 100", "unit": "%"},
      {"measurement": "pest or weed control at 70 g/ha", "setting": "[1]; [7]", "value": "95 to 100", "unit": "%"},
      {"measurement": "pest or weed control at 140 g/ha", "setting": "[1]; [7]", "value": "95 to 100", "unit": "%"},
      {"measurement": "pest or weed control at 70 g/ha", "setting": "[1]; [8]", "value": "95 to 100", "unit": "%"},
      {"measurement": "pest or weed control at 140 g/ha", "setting": "[1]; [8]", "value": "95 to 100", "unit": "%"},
      {"measurement": "pest or weed control at 70 g/ha", "setting": "[1]; [9]", "value": "95 to 100", "unit": "%"},
      {"measurement": "pest or weed control at 140 g/ha", "setting": "[1]; [9]", "value": "95 to 100", "unit": "%"},
      {"measurement": "pest or weed control at 70 g/ha", "setting": "[2]; [10]", "value": "95 to 100", "unit": "%"},
      {"measurement": "pest or weed control at 140 g/ha", "setting": "[2]; [10]", "value": "95 to 100", "unit": "%"},
      {"measurement": "pest or weed control at 70 g/ha", "setting": "[2]; [11]", "value": "75 to 84", "unit": "%"},
      {"measurement": "pest or weed control at 140 g/ha", "setting": "[2]; [11]", "value": "85 to 94", "unit": "%"},
      {"measurement": "pest or weed control at 70 g/ha", "setting": "[2]; [12]", "value": "75 to 84", "unit": "%"},
      {"measurement": "pest or weed control at 140 g/ha", "setting": "[2]; [12]", "value": "75 to 84", "unit": "%"},
      {"measurement": "pest or weed control at 70 g/ha", "setting": "[2]; [13]", "value": "30 to 44", "unit": "%"},
      {"measurement": "pest or weed control at 140 g/ha", "setting": "[2]; [13]", "value": "30 to 44", "unit": "%"},
      {"measurement": "pest or weed control at 70 g/ha", "setting": "[2]; [14]", "value": "95 to 100", "unit": "%"},
      {"measurement": "pest or weed control at 140 g/ha", "setting": "[2]; [14]", "value": "95 to 100", "unit": "%"},
      {"measurement": "pest or weed control at 70 g/ha", "setting": "[2]; [15]", "value": "95 to 100", "unit": "%"},
      {"measurement": "pest or weed control at 140 g/ha", "setting": "[2]; [15]", "value": "95 to 100", "unit": "%"},
      {"measurement": "pest or weed control at 70 g/ha", "setting": "[2]; [16]", "value": "30 to 44", "unit": "%"},
      {"measurement": "pest or weed control at 140 g/ha", "setting": "[2]; [16]", "value": "45 to 59", "unit": "%"},
      {"measurement": "pest or weed control at 70 g/ha", "setting": "[2]; [17]", "value": "95 to 100", "unit": "%"},
      {"measurement": "pest or weed control at 140 g/ha", "setting": "[2]; [17]", "value": "95 to 100", "unit": "%"}
    ]}
  ]
}
